Reference: publication PMC12698594, “A natural PCID2-Targeting compound suppresses hepatocellular carcinoma progression: evidence from structure-based discovery and biological evaluation” (Frontiers in Pharmacology, 2025)

Biological target: T1, PCID2 (PCI-domain containing protein 2) (Homo sapiens, UniProt Q5JVF3)
T1 construct: amine-type direct coupling to CM5 chip; DSS1 not mentioned in the SPR test
Assay: SPR (Biacore, CM5 chip, […] Langmuir global fit)
Format: binding

T1 sequence (Q5JVF3 2-399): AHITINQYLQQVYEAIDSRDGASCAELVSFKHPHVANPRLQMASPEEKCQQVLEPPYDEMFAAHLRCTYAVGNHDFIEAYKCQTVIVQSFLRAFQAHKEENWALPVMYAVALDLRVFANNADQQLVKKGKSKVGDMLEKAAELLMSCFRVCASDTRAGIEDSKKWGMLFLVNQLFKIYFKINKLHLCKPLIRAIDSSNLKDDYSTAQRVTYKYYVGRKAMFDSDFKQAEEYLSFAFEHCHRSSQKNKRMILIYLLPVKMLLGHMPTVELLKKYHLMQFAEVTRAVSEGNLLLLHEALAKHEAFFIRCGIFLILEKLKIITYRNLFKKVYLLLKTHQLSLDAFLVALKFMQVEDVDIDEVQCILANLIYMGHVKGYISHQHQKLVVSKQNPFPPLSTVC

With `O=C(OC[C@H]1O[C@@H](OC(=O)c2cc(O)c(O)c(O)c2)[C@H](OC(=O)c2cc(O)c(O)c(O)c2)[C@@H](OC(=O)c2cc(O)c(O)c(O)c2)[C@@H]1OC(=O)c1cc(O)c(O)c(O)c1)c1cc(O)c(O)c(O)c1` [#02, 1,2,3,4,6-Penta-O-galloyl-β-D-glucose] the Kd was 5.27 µM.
